Blank lines part the entries; values can stand above or below the compound they belong to.
Experiments:
[1] = molecular target: T1, Lysine-specific demethylase 4A (Homo sapiens, UniProt O75164); assay: Inhibition of binding of H3K4Me3 to KDM4A tudor domain (unknown origin) measured by NanoBRET-based cellular proximity assay
T1 sequence (O75164 whole entry): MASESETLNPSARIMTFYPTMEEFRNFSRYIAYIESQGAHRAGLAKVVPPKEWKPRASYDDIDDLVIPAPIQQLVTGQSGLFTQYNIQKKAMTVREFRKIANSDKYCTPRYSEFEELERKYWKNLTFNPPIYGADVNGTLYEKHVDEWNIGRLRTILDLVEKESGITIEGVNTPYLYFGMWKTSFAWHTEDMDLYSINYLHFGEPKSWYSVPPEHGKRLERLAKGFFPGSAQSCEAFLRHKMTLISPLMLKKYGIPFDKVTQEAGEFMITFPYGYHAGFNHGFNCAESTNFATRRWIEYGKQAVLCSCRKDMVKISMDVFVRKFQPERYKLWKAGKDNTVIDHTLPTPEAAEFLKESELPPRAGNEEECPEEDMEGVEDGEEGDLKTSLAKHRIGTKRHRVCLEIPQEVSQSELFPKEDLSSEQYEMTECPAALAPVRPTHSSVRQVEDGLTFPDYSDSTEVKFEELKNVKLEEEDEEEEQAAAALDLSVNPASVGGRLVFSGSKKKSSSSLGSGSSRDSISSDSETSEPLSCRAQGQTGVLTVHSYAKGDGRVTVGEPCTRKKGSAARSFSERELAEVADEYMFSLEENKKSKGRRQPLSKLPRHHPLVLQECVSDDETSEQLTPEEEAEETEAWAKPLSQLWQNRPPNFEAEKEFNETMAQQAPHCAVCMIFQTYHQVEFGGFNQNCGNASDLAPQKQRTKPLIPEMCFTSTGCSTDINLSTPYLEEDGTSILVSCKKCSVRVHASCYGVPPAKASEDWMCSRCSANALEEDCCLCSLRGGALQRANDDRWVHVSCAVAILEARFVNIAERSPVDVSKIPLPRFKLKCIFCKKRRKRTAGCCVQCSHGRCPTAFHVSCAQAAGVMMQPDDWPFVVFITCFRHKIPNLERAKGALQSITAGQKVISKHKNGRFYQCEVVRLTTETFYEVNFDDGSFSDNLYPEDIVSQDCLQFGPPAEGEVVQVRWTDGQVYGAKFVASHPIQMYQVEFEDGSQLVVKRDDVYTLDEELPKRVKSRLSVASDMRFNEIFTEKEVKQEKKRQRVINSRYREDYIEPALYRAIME

[2] = molecular target: T2, Lysine-specific demethylase 4B (Homo sapiens, UniProt O94953); assay: Inhibition of human KDM4B measured by AlphaLISA assay
T2 sequence (O94953 whole entry): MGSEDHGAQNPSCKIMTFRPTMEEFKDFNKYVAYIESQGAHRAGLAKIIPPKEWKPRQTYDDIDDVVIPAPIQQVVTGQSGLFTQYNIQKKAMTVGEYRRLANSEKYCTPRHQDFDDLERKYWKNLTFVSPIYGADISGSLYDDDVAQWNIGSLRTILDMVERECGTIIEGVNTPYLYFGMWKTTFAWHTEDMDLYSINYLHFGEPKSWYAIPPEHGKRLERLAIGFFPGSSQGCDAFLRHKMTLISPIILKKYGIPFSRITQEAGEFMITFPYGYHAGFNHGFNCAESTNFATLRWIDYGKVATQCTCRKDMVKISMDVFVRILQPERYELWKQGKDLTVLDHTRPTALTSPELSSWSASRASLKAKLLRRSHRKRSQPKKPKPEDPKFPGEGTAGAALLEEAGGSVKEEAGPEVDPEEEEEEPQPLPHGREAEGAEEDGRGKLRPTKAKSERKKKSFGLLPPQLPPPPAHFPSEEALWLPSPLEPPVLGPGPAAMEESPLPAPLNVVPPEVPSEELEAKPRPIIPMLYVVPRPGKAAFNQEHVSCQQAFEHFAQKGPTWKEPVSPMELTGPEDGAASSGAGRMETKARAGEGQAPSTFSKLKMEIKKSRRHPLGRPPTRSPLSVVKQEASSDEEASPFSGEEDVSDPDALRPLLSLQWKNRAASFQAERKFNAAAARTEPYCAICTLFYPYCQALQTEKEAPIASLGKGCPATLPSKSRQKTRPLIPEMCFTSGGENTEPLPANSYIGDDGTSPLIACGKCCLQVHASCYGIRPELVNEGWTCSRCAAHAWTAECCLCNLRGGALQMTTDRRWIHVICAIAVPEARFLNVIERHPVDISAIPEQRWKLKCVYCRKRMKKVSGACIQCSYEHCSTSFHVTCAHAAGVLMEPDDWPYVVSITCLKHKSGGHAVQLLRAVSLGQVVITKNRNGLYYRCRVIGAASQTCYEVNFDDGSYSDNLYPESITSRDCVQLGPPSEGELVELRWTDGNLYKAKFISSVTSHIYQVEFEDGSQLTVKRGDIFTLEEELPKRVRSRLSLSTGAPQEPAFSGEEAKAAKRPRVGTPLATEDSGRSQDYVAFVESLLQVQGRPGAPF

[3] = molecular target: T3, Lysine-specific demethylase 4C (Homo sapiens, UniProt Q9H3R0); assay: Inhibition of human KDM4C measured by AlphaLISA assay
T3 sequence (Q9H3R0 whole entry): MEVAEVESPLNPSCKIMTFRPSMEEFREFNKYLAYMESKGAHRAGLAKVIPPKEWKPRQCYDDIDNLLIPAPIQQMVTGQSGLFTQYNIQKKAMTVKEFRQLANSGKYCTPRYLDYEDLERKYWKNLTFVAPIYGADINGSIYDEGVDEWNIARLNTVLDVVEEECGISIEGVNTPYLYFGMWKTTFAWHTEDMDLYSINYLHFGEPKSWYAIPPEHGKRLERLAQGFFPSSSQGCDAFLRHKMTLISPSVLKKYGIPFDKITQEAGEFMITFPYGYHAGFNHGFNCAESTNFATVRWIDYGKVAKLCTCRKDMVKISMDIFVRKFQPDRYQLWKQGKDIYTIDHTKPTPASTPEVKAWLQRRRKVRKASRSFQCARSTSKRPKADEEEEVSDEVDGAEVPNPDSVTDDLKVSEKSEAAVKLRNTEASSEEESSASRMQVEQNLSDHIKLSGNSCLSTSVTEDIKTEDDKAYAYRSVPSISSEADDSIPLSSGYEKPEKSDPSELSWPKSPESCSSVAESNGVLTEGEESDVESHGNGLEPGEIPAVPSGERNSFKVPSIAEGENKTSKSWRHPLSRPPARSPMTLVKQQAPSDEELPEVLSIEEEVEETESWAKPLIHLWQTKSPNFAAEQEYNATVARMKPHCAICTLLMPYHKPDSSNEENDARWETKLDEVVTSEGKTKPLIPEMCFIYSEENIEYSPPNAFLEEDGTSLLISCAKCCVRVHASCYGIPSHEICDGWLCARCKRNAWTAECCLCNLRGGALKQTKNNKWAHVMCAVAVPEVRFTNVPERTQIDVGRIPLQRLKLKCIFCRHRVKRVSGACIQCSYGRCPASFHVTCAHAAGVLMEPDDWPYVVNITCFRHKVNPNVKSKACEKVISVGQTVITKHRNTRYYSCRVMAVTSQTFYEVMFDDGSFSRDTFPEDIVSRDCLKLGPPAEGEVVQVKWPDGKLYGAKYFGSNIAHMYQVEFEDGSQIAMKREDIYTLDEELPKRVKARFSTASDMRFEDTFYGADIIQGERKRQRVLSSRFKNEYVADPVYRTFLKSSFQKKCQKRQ

[4] = molecular target: T4, Lysine-specific demethylase 4D (Homo sapiens, UniProt Q6B0I6); assay: Inhibition of human KDM4D measured by AlphaLISA assay
T4 sequence (Q6B0I6 whole entry): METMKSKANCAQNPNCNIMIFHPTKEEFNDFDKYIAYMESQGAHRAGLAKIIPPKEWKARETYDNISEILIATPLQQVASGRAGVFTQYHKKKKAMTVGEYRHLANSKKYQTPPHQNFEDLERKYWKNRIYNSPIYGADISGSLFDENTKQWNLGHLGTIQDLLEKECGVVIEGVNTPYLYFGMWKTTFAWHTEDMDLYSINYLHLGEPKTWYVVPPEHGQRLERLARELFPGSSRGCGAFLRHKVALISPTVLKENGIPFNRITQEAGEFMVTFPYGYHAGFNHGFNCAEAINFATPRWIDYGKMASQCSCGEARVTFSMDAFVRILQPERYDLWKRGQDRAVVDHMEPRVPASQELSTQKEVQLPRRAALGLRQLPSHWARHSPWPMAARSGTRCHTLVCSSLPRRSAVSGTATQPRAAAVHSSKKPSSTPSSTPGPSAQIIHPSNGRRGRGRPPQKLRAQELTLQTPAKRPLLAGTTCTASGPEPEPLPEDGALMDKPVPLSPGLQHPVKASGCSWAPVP

[5] = Permeability of compound in human Caco-2 cells; type: ADME, cell-based; details: read-out: permeability
[6] = molecular target: T5, Lysine-specific demethylase 2A (Homo sapiens, UniProt Q9Y2K7); assay: Inhibition of KDM2A in human MIA PaCa-2 cells assessed as induction of H3K36me2 measured by immunofluorescence assay; type: cell-based
T5 sequence (Q9Y2K7 whole entry): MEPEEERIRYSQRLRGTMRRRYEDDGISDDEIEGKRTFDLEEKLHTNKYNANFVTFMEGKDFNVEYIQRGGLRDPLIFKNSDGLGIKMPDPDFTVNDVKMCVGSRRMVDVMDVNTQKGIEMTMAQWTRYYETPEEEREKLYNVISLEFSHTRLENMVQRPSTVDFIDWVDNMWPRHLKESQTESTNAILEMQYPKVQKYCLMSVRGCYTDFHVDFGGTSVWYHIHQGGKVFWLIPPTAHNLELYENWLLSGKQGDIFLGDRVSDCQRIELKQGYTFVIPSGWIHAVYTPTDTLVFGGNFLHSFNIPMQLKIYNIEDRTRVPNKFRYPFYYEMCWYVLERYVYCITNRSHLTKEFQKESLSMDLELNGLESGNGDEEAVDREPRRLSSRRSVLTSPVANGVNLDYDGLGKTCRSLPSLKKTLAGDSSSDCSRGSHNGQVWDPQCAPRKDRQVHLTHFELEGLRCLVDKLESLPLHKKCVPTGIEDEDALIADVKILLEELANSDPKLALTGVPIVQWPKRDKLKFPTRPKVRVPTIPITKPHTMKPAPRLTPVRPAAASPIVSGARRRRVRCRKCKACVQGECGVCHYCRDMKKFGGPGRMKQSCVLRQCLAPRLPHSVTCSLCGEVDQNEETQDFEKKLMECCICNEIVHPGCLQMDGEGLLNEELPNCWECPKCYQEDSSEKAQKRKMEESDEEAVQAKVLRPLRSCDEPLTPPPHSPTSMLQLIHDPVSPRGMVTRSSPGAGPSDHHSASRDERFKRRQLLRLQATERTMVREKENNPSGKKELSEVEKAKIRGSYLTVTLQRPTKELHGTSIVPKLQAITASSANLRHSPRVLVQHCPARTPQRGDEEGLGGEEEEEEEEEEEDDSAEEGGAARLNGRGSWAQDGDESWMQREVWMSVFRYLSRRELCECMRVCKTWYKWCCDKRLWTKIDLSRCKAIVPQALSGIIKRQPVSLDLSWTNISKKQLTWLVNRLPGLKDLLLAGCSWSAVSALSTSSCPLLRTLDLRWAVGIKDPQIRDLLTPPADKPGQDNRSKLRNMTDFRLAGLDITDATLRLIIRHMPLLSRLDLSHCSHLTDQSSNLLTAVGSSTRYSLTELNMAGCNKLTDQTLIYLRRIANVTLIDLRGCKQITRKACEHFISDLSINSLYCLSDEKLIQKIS

[7] = molecular target: T1, Lysine-specific demethylase 4A
[8] = molecular target: T1, Lysine-specific demethylase 4A; remark: listed apart in the source

- EC50 [1]: 105 µM
Structure (SMILES): CN(C)C[C@H]1[C@H]2CC[C@](c3ccccc3)(C2)[C@H]1O

- IC50 [2]: 24.4 µM
- IC50 [3]: 24.4 µM
- IC50 [4]: 24.4 µM
Structure (SMILES): O=C(O)c1cc(O)c(=O)c2c(O)c(O)cc(-c3ccccc3)c2c1

- Papp [5]: 12.5 ×10⁻⁶ cm/s
Structure (SMILES): CN(C)CCCNC(=O)c1ccc(-c2cc(O)c3ncccc3c2)cc1

- IC50 [6]: 0.28 µM
- Ki [7]: 0.42 µM
- IC50 [8]: 0.28 µM
Structure (SMILES): CN(C)c1ccc(/C=C/c2cc[n+](Cc3ccc(F)cc3)cc2)cc1
